This experiment concerns the target MYT1 protein (Homo sapiens (Human), UniProt Q99640). Nature of the experiment: Test for binding to ATP binding site of MYT1 (Kinase Tracer 178 / Eu-Anti-GST antibody TR-FRET). Particulars: ATP binding site of MYT1, 30 minutes at room temperature. The method, then: The binding capacity of each compound to the ATP binding site of MYT1 Kinase protein was evaluated. 5× Kinase Buffer A (manufactured by Thermo Fisher Scientific Inc., PV3189) was diluted to 5 times with Milli-Q water, thereby preparing 1× Kinase Buffer. Using 1× Kinase Buffer, MYT1 protein (manufactured by Carna Biosciences, Inc.) was diluted to a concentration of 0.005 μM and Eu-Anti-GST Antibody was diluted to a concentration of 1 μM. […] To a 96 well-plate, 2.5 μL of a compound diluted with DMSO was added. […] The mixture was well mixed and then allowed to stand at room temperature for 30 minutes. Thereafter, fluorescence wavelengths of 665 nm and 615 nm generated by irradiation with excitation light of 340 nm were detected using Envision (manufactured by PerkinElmer). The proportion of Tracer bound to MYT1 protein was calculated for every condition by dividing the intensity at the fluorescence wavelength of 665 nm by the intensity at the fluorescence wavelength of 615 nm.
In general terms: TR-FRET usually uses a lanthanide donor and a delayed reading to cut background.

Molecules are shown by their SMILES.

Sequence of MYT1 protein (Q99640 whole entry): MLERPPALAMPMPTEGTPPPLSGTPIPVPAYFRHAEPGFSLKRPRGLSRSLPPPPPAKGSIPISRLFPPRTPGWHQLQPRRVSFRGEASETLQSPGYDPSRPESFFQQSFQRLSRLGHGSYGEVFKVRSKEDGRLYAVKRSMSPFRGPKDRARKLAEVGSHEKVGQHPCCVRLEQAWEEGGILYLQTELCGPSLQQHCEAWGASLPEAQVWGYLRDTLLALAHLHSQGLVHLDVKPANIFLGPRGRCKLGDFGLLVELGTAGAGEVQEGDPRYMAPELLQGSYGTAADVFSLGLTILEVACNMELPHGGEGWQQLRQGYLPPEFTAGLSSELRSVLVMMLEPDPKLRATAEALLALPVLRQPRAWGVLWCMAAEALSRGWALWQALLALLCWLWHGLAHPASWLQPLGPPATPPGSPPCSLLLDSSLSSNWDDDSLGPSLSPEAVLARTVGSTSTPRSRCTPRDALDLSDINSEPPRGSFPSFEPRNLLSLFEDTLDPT

On to `Nc1c(-c2ccc(Cl)c3[nH]ncc23)c2cc(C3CCN(C4COC4)CC3)ccc2[nH]c1=O` [Compound A36, 3-Amino-4-(7-chloro-1H-indazol-4-yl)-6-[1-(oxetane-3-yl)piperidin-4-yl]-1H-quinolin-2-one], for which the IC50 turned out to be 0.018 µM.
Molecule `Nc1c(-c2ccc(Cl)c3[nH]ncc23)c2cc(C(=O)NC3CC3)ccc2[nH]c1=O` [Compound A37, 3-Amino-4-(7-chloro-1H-indazol-4-yl)-N-cyclopropyl-2-oxo-1H-quinoline-6-carboxamide] came in with an IC50 of 0.0056 µM.
`Nc1c(-c2ccc(Cl)c3[nH]ncc23)c2cc(C(=O)N3CCOCC3)ccc2[nH]c1=O` [Compound A38, 3-Amino-4-(7-chloro-1H-indazol-4-yl)-6-(morpholine-4-carbonyl)-1H-quinolin-2-one] gave an IC50 of 0.02 µM.
For `CN1CC(c2ccc3[nH]c(=O)c(N)c(-c4ccc(Cl)c5[nH]ncc45)c3c2)C1` [Compound A39, 3-Amino-4-(7-chloro-1H-indazol-4-yl)-6-(1-methylazetidin-3-yl)-1H-quinolin-2-one] the value was 0.023 µM; for `Nc1c(-c2ccc(Cl)c3[nH]ncc23)c2ccc(Cl)cc2[nH]c1=O` [Compound A40, 3-Amino-7-chloro-4-(7-chloro-1H-indazol-4-yl)-1H-quinolin-2-one], 0.0086 µM; for `COc1cccc(-c2c(N)c(=O)[nH]c3ccc(Cl)cc23)c1` [Compound A42, 3-Amino-6-chloro-4-(3-methoxyphenyl)-1H-quinolin-2-one], 0.45 µM.
For `Nc1c(-c2cccc3[nH]ncc23)c2cc(Cl)ccc2[nH]c1=O` [Compound A43, 3-Amino-6-chloro-4-(1H-indazol-4-yl)-1H-quinolin-2-one] the value was 0.048 µM; for `Nc1c(-c2ccncc2)c2cc(Cl)ccc2[nH]c1=O` [Compound A44, 3-Amino-6-chloro-4-pyridin-4-yl-1H-quinolin-2-one], 5 µM.
Under `Nc1c(-c2cccnc2)c2cc(Cl)ccc2[nH]c1=O` [Compound A45, 3-Amino-6-chloro-4-pyridin-3-yl-1H-quinolin-2-one] stands 5 µM; under `CS(=O)(=O)Nc1cccc(-c2c(N)c(=O)[nH]c3ccc(Cl)cc23)c1` [Compound A46, N-[3-(3-amino-6-chloro-2-oxo-1H-quinolin-4-yl)phenyl]methanesulfonamide], 5.9 µM; under `Nc1cc(-c2c(N)c(=O)[nH]c3ccc(Cl)cc23)ccn1` [Compound A47, 3-Amino-4-(2-aminopyridin-4-yl)-6-chloro-1H-quinolin-2-one], 3.3 µM.
As to `Nc1c(-c2ccc3nc[nH]c3c2)c2cc(Cl)ccc2[nH]c1=O` [Compound A48, 3-Amino-4-(3H-benzimidazol-5-yl)-6-chloro-1H-quinolin-2-one], the IC50 stood at 5.3 µM.
For `Nc1c(-c2ccc3cn[nH]c3c2)c2cc(Cl)ccc2[nH]c1=O` [Compound A49, 3-Amino-6-chloro-4-(1H-indazol-6-yl)-1H-quinolin-2-one] the value was 0.79 µM; for `Nc1c(-c2cccc(OC(F)F)c2)c2cc(Cl)ccc2[nH]c1=O` [Compound A50, 3-Amino-6-chloro-4-[3-(difluoromethoxy)phenyl]-1H-quinolin-2-one], 5.8 µM.
In turn, `Nc1c(-c2cccc(C(F)F)c2)c2cc(Cl)ccc2[nH]c1=O` [Compound A51, 3-Amino-6-chloro-4-[3-(difluoromethyl)phenyl]-1H-quinolin-2-one] had an IC50 of 2.7 µM.
In turn, `Cn1ccc(-c2c(N)c(=O)[nH]c3ccc(Cl)cc23)cc1=O` [Compound A52, 3-Amino-6-chloro-4-(1-methyl-2-oxopyridin-4-yl)-1H-quinolin-2-one] had an IC50 of 4.4 µM.
Under `Nc1c(-c2cccc3[nH]ccc23)c2cc(Cl)ccc2[nH]c1=O` [Compound A53, 3-Amino-6-chloro-4-(1H-indol-4-yl)-1H-quinolin-2-one] stands 0.98 µM; under `Cc1cc(-c2c(N)c(=O)[nH]c3ccc(Cl)cc23)c2cn[nH]c2c1` [Compound A55, 3-Amino-6-chloro-4-(6-methyl-1H-indazol-4-yl)-1H-quinolin-2-one], 0.48 µM; under `Nc1c(-c2cc(Cl)cc3[nH]ncc23)c2cc(Cl)ccc2[nH]c1=O` [Compound A58, 3-Amino-6-chloro-4-(6-chloro-1H-indazol-4-yl)-1H-quinolin-2-one], 0.36 µM.
Under `Cc1n[nH]c2cccc(-c3c(N)c(=O)[nH]c4ccc(Cl)cc34)c12` [Compound A62, 3-Amino-6-chloro-4-(3-methyl-1H-indazol-4-yl)-1H-quinolin-2-one] stands 3.9 µM.
`Cc1ccc2[nH]ncc2c1-c1c(N)c(=O)[nH]c2ccc(Cl)cc12` [Compound A63, 3-Amino-6-chloro-4-(5-methyl-1H-indazol-4-yl)-1H-quinolin-2-one] showed an IC50 of 0.71 µM.
For `Nc1c(-c2cccc(O)c2)c2cc(C3CC3)ccc2[nH]c1=O` [Compound A65, 3-Amino-6-cyclopropyl-4-(3-hydroxyphenyl)-1H-quinolin-2-one] the value was 0.19 µM; for `Nc1c(-c2cccc(O)c2)c2ccccc2[nH]c1=O` [Compound A66, 3-Amino-4-(3-hydroxyphenyl)-1H-quinolin-2-one], 0.38 µM; for `Nc1c(-c2c(F)ccc3[nH]ncc23)c2cc(Cl)ccc2[nH]c1=O` [Compound A67, 3-Amino-6-chloro-4-(5-fluoro-1H-indazol-4-yl)-1H-quinolin-2-one], 0.13 µM.
The molecule `Nc1c(-c2cc[nH]c(=O)c2)c2cc(Cl)ccc2[nH]c1=O` [Compound A68, 3-Amino-6-chloro-4-(2-oxo-1H-pyridin-4-yl)-1H-quinolin-2-one] yielded an IC50 of 8 µM.
As for `Nc1nccc(-c2c(N)c(=O)[nH]c3ccc(Cl)cc23)n1` [Compound A69, 3-Amino-4-(2-aminopyrimidin-4-yl)-6-chloro-1H-quinolin-2-one], the IC50 was found to be 2.5 µM.
In the case of `Nc1c(-c2ccccc2)c2ccccc2[nH]c1=O` [Compound A70, 3-Amino-4-phenyl-1H-quinolin-2-one], the IC50 turned out to be 6.2 µM.
For `Nc1c(N2CCCC(CO)C2)c2cc(Br)ccc2[nH]c1=O` (centres unmarked) [Compound A71, 3-Amino-6-bromo-4-[3-(hydroxymethyl)piperidin-1-yl]-1H-quinolin-2-one 2,2,2-trifluoroacetate] the value was 1.4 µM; for `Nc1c(-c2ccc(Cl)c3[nH]ncc23)c2cc(OCC3(F)CC3)c(F)cc2[nH]c1=O` [Compound A72, 3-Amino-4-(7-chloro-1H-indazol-4-yl)-7-fluoro-6-[(1-fluorocyclopropyl)methoxy]-1H-quinolin-2-one], 0.096 µM.
`COc1cccc(-c2c(N)c(=O)[nH]c3c2ccc2ccccc23)c1` [Compound B1, 3-Amino-4-(3-methoxyphenyl)-1H-benzo[h]quinolin-2-one]: the IC50 came out at 5.6 µM.
For `Nc1c(-c2cccc(O)c2)c2cc(Br)c3ccccc3c2[nH]c1=O` [Compound B4, 3-Amino-6-bromo-4-(3-hydroxyphenyl)-1H-benzo[h]quinolin-2-one] the value was 0.027 µM; for `Nc1c(-c2cccc(O)c2)c2cc(-c3ccccc3)c3ccccc3c2[nH]c1=O` [Compound B5, 3-Amino-4-(3-hydroxyphenyl)-6-phenyl-1H-benzo[h]quinolin-2-one], 0.42 µM.
`Cc1cc2c(-c3cccc(O)c3)c(N)c(=O)[nH]c2c2ccccc12` [Compound B6, 3-Amino-4-(3-hydroxyphenyl)-6-methyl-1H-benzo[h]quinolin-2-one]: the IC50 amounted to 0.007 µM.
`Nc1c(-c2cccc(O)c2)c2cc(Cl)c3ccccc3c2[nH]c1=O` [Compound B8, 3-Amino-6-chloro-4-(3-hydroxyphenyl)-1H-benzo[h]quinolin-2-one]: the IC50 stood at 0.012 µM.
`Nc1c(-c2ccc(F)c3[nH]ncc23)c2cc(I)c3ccc(Cl)cc3c2[nH]c1=O` [Compound B9, 3-Amino-9-chloro-4-(7-fluoro-1H-indazol-4-yl)-6-iodo-1H-benzo[h]quinolin-2-one] returned an IC50 of 0.12 µM.
Under `Nc1c(-c2ccc(F)c3[nH]ncc23)c2cc(C3CC3)c3ccc(Cl)cc3c2[nH]c1=O` [Compound B10, 3-Amino-9-chloro-6-cyclopropyl-4-(7-fluoro-1H-indazol-4-yl)-1H-benzo[h]quinolin-2-one] stands 0.036 µM.
Under `Nc1c(-c2ccc(F)c3[nH]ncc23)c2ccc3ccc(Cl)cc3c2[nH]c1=O` [Compound B11, 3-Amino-9-chloro-4-(7-fluoro-1H-indazol-4-yl)-1H-benzo[h]quinolin-2-one] stands 0.03 µM; under `Cc1cc2c(-c3ccc(F)c4[nH]ncc34)c(N)c(=O)[nH]c2c2cc(Cl)ccc12` [Compound B12, 3-Amino-9-chloro-4-(7-fluoro-1H-indazol-4-yl)-6-methyl-1H-benzo[h]quinolin-2-one], 0.02 µM.
For `Nc1c(-c2ccc(F)c3[nH]ncc23)c2cc(I)c3cc(Cl)ccc3c2[nH]c1=O` [Compound B13, 3-Amino-8-chloro-4-(7-fluoro-1H-indazol-4-yl)-6-iodo-1H-benzo[h]quinolin-2-one] the value was 0.085 µM.
Regarding `Nc1c(-c2ccc(F)c3[nH]ncc23)c2cc(C3CC3)c3cc(Cl)ccc3c2[nH]c1=O` [Compound B14, 3-Amino-8-chloro-6-cyclopropyl-4-(7-fluoro-1H-indazol-4-yl)-1H-benzo[h]quinolin-2-one], the IC50 amounted to 0.018 µM.
In turn, `Cc1cc2c(-c3ccc(F)c4[nH]ncc34)c(N)c(=O)[nH]c2c2ccc(Cl)cc12` [Compound B15, 3-Amino-8-chloro-4-(7-fluoro-1H-indazol-4-yl)-6-methyl-1H-benzo[h]quinolin-2-one] gave an IC50 of 0.0086 µM.

Usually IC50 stands for the midpoint of a concentration-inhibition curve.

The record behind these values is patent US20260062412A1, “NITROGEN-CONTAINING HETEROCYCLIC COMPOUND HAVING MYT1 INHIBITORY ACTIVITY” (CHUGAI SEIYAKU KABUSHIKI KAISHA, priority 2023, published 2026).
